Data: US12377112B2, “Methods of treating neurocognitive disorders, chronic pain and reducing inflammation” (priority 2019, dated 2025)

Tested on: healthy subjects
Experiment: Phase 1 study: Life Changes Inventory (LCI)
Assay type: in vivo, human
Source text: In some embodiments, the Life Changes Inventory (LCI) questionnaire is utilized to evaluate the safety and/or efficacy of psilocybin. The LCI is designed as a questionnaire to investigate those variables present in the day-to-day experience of adults that might relate either to stability or decline of intellectual ability.
The following list of outcome measures are non-exhaustive: • a. The short-term change from Baseline (Day −1 [Visit 2]) to Day 7 (Visit 5) in cognitive measures of attention, spatial and working memory and executive function was measured by a composite score of the CANTAB Panel (Spatial Working Memory [SWM], Rapid Visual Information Processing [RVP], Paired Associates Learning [PAL]). • b. The short-term change from Baseline (Day −1 [Visit 2]) to Day 7 (Visit 5) in Social Cognition Panel scales (Pictorial Empathy Test [PET], Reading the Mind in the eyes Test [RMET], Toronto Empathy Questionnaire [TEQ], Social Value Orientation [SVO], Scale of Social Responsibility [SSR]). • c. The change from Baseline (Day −1 [Visit 2]) to Day 28 (Visit 6) in cognitive measures of attention, spatial and working memory and executive function as measured by a composite score of the CANTAB Panel (SWM, RVP, PAL). • d. The long-term change from Baseline (Day −1 [Visit 2]) to Day 84 (Visit 7) in Social Cognition Panel scales (PET, RMET, TEQ, SVO, SSR). • e. Dose-related differences between cognitive effects of psilocybin at Baseline (Day −1 [Visit 2]), Day 7 (Visit 5) and Day 28 (Visit 6), as measured by a composite score of the CANTAB Panel (SWM, RVP, PAL). • f. Dose-related differences between psychological effects of psilocybin at Baseline (Day −1 [Visit 2]), Day 7 (Visit 5) and Day 84 (Visit 7), as measured by Social Cognition Panel scales (PET, RMET, TEQ, SVO, SSR). • g. Differences in cognitive effects of psilocybin between psilocybin-naïve and experienced subjects at Baseline (Day −1 [Visit 2]), Day 7 (Visit 5) and Day 28 (Visit 6), as measured by a composite score of the CANTAB Panel (SWM, RVP, PAL). • h. Differences in Positive and Negative Affect Schedule (PANAS) after study drug administration on Day 0 (Visit 3). • i. Differences between psilocybin and placebo in the Emotion Recognition Test (ERT), Intra-Extra Dimensional Set Shift (IED), One Touch Stockings (OTS), Verbal Fluency and Digit Span Forward at Day 7 (Visit 5). • j. A composite score of the CANTAB Panel, including the following tests: • i. Spatial Working Memory (SWM) (performed at Visit 2, Visit 5, and Visit 6). • ii. Rapid Visual Information Processing (RVP) (performed at Visit 2, Visit 5, and Visit 6). • iii. Paired Associates Learning (PAL) (performed at Visit 2, Visit 5, and Visit 6). • k. Cognitive Flexibility Panel • i. Emotion Recognition Task (ERT) (performed at Visit 5). • ii. Intra-Extra Dimensional Set Shift (IED) (performed at Visit 5). • iii. One Touch Stockings (OTS) (performed at Visit 5). • iv. Verbal Fluency (performed at Visit 5). • v. Digit Span Forward (performed at Visit 5). • l. Five Dimension Altered States of Consciousness questionnaire (5D-ASC) (performed at Visit 3). • m. PANAS (performed at Visit 2 and Visit 3). • n. NEO-Five Factor Inventory (NEO-FFI) (performed at Visit 2, Visit 5, and Visit 7). • o. Symptom Checklist-90 item (SCL-90) (performed at Visit 2, Visit 5, and Visit 7). • p. Life Changes Inventory (LCI): The LCI measures changes in attitudes and values after near-death experiences often used to evaluate personal transformation following spiritually oriented experiences and practices. (performed at Visit 5 and Visit 7). • q. Social Cognition Panel scales • i. Pictorial Empathy Test (PET) (performed at Visit 2, Visit 5, and Visit 7). • ii. Reading the Mind in the Eyes Test (RMET) (performed at Visit 2, Visit 5, and Visit 7). • iii. Social Value Orientation (SVO) (performed at Visit 2, Visit 5, and Visit 7). • iv. Toronto Empathy Questionnaire (TEQ) (performed at Visit 2, Visit 5, and Visit 7). • v. […]

[1] = Psilocybin 10 mg - Placebo, Day 7
[2] = Psilocybin 10 mg - Placebo, Day 84
[3] = Psilocybin 25 mg - Placebo, Day 7
[4] = Psilocybin 25 mg - Placebo, Day 84
[5] = Psilocybin (25 mg - 10 mg), Day 7
[6] = Psilocybin (25 mg - 10 mg), Day 84

CN(C)CCc1c[nH]c2cccc(OP(=O)(O)O)c12 [Psilocybin, psilocybin]
0.0: LCI religiousness, LS mean difference [3] | LCI religiousness, LS mean difference [4] | LCI concern for others, LS mean difference [5] | LCI quest for meaning, LS mean difference [5] | LCI appreciation of death, LS mean difference [6] | LCI concern social, LS mean difference [6] | LCI self-acceptance, LS mean difference [6]
0.5: LCI self-acceptance, LS mean difference [2] | LCI appreciation for life, LS mean difference [3] | LCI self-acceptance, LS mean difference [3] | LCI appreciation for life, LS mean difference [4] | LCI concern for others, LS mean difference [4] | LCI self-acceptance, LS mean difference [4]
0.4: LCI concern for others, LS mean difference [1] | LCI quest for meaning, LS mean difference [1] | LCI-absolute change, LS mean difference [1] | LCI concern for others, LS mean difference [2] | LCI quest for meaning, LS mean difference [2] | LCI spirituality, LS mean difference [2] | LCI-absolute change, LS mean difference [2] | LCI concern for others, LS mean difference [3] | LCI quest for meaning, LS mean difference [3] | LCI quest for meaning, LS mean difference [4] | LCI spirituality, LS mean difference [4] | LCI-absolute change, LS mean difference [4]
0.1: LCI appreciation of death, LS mean difference [1] | LCI concern social, LS mean difference [1] | LCI concern social, LS mean difference [2] | LCI appreciation of death, LS mean difference [3] | LCI concern social, LS mean difference [4] | LCI concern for worldly achievement, LS mean difference [5] | LCI concern social, LS mean difference [5] | LCI religiousness, LS mean difference [5] | LCI concern for others, LS mean difference [6] | LCI concern for worldly achievement, LS mean difference [6] | LCI religiousness, LS mean difference [6]
0.2: LCI appreciation of death, LS mean difference [2] | LCI concern social, LS mean difference [3] | LCI spirituality, LS mean difference [3] | LCI appreciation of death, LS mean difference [4]
0.7: LCI self-acceptance, LS mean difference [1]
0.3: LCI spirituality, LS mean difference [1] | LCI-absolute change, LS mean difference [3]
−0.2: LCI concern for worldly achievement, LS mean difference [1] | LCI concern for worldly achievement, LS mean difference [2] | LCI appreciation for life, LS mean difference [5]
−0.1: LCI religiousness, LS mean difference [1] | LCI concern for worldly achievement, LS mean difference [3] | LCI concern for worldly achievement, LS mean difference [4] | LCI self-acceptance, LS mean difference [5] | LCI spirituality, LS mean difference [5] | LCI-absolute change, LS mean difference [5] | LCI appreciation for life, LS mean difference [6]
−0.0: LCI religiousness, LS mean difference [2] | LCI appreciation of death, LS mean difference [5] | LCI quest for meaning, LS mean difference [6] | LCI spirituality, LS mean difference [6] | LCI-absolute change, LS mean difference [6]
0.6: LCI appreciation for life, LS mean difference [1] | LCI appreciation for life, LS mean difference [2]
